According to patent US20250352464A1, “TOPICAL COMPOSITIONS AND METHODS FOR TREATING DERMATOPOROSIS” (GALDERMA HOLDING SA, priority 2023, published 2025):

Experiments:
[1] = system: human primary adult dermal fibroblasts and human primary adult dermal keratinocytes; conditions: 24 h
Description: To determine suitable dosing of Centella asiatica extract and mandelic acid, human primary adult dermal fibroblasts and human primary adult dermal keratinocytes were purchased from ZenBio (https://www.zen-bio.com/, Durham, NC) and plated as per the provided ZenBio protocols in the recommended media from ZenBio.
Approximately 10k cells were plated per well in each well of a 96-well plate. […] Centella asiatica extract concentrations ranged from 0.00025% to 0.25%, in 2× steps. […] After 24 hours of treatment, an alamar blue assay was performed. The plate was then read in an Envision plate reader with 560 nm excitation and 590 nm emission filters to determine cell viability.

human keratinocytes = test: in vitro gene expression analysis (RNA sequencing) in keratinocytes; assay type: cell-based; conditions: 72 hrs, mandelic acid 0.05%
Description: Genes were annotated using the Reactome Database.

[2] = human keratinocytes grown to confluence, Centella asiatica extract 0.005%, combination same concentrations, vs untreated cells

With `O=C(O)C(O)c1ccccc1` (stereo not drawn) [Mandelic Acid, mandelic acid] the “highest concentration not resulting in cytotoxicity” value [1] was 0.05%, the “Modulation of Gene Expression (Fold Change): CEBPB” value (human keratinocytes; [2]) was −2.45 Fold Change and the “Modulation of Gene Expression (Fold Change): HIST1H2BD” value (human keratinocytes; [2]) was 0.55 Fold Change. The “Modulation of Gene Expression (Fold Change): HIST1H2BG” value (human keratinocytes; [2]) was 0.45 Fold Change, the “Modulation of Gene Expression (Fold Change): HIST1H3D” value (human keratinocytes; [2]) was −0.23 Fold Change and the “Modulation of Gene Expression (Fold Change): HIST1H4E” value (human keratinocytes; [2]) was 0.60 Fold Change. The “Modulation of Gene Expression (Fold Change): HIST1H4H” value (human keratinocytes; [2]) was −0.54 Fold Change, the “Modulation of Gene Expression (Fold Change): IL1B” value (human keratinocytes; [2]) was 1.73 Fold Change and the “Modulation of Gene Expression (Fold Change): IL8” value (human keratinocytes; [2]) was −1.46 Fold Change. For the same molecule, the “Modulation of Gene Expression (Fold Change): TNF” value (human keratinocytes; [2]) was −2.69 Fold Change, the “Modulation of Gene Expression (Fold Change): UBB” value (human keratinocytes; [2]) was −3.87 Fold Change and the “Modulation of Gene Expression (Fold Change): UBC” value (human keratinocytes; [2]) was −1.09 Fold Change. For the same molecule, the “Modulation of Gene Expression (Fold Change): UBE2C” value (human keratinocytes; [2]) was 0.51 Fold Change, the “expression of p15 (CDKN2B)” value (human keratinocytes; human keratinocytes, Centella 0.005%, FIG. 5) was “upregulate” and the “pro-inflammatory gene expression (MMP2, HSPA8, CSF2RA, CXCL1, IL2RB, NFKBIA, PTG52)” value (human keratinocytes; human keratinocytes, Centella 0.005%, FIGS. 4A-4G) was “significantly downregulated”.
